Assay results taken from the NIST ThermoML archive (doi:10.1016/j.fluid.2009.02.001).
“And” between values parts separate entries of the source, which are not always exact repeats. Equal values may be shown once. Numbers after ± are expanded uncertainties.

Assays:
[1] = for vapor or sublimation pressure: Liquid; for Normal melting temperature: Crystal, DTA
[2] = Molar enthalpy of transition or fusion; details: Crystal; DSC

CC(=O)Nc1ccc(O)cc1 [N-acetyl-p-aminophenol]
vapor or sublimation pressure [kPa], [1]
Details	Isothermal thermogravimetry	Nonisothermal thermogravimetry
477.3 K	0.194 ± 0.02	0.197 ± 0.02
478.8 K	0.1996 ± 0.023	–
479.3 K	0.206 ± 0.023	0.204 ± 0.024
480 K	0.225 ± 0.029	–
480.8 K	0.2307 ± 0.03	–
481.4 K	0.249 ± 0.027	0.25 ± 0.029
482 K	0.2601 ± 0.032	–
482.9 K	0.2539 ± 0.028	–
483.2 K	0.276 ± 0.029	0.259 ± 0.031
483.8 K	0.2861 ± 0.032	–
484.7 K	0.2838 ± 0.033	–
485.2 K	0.303 ± 0.033	–
485.9 K	0.3199 ± 0.038	–
486.7 K	0.3264 ± 0.04	–
487.3 K	0.336 ± 0.037	0.341 ± 0.036
487.9 K	0.3679 ± 0.04	–
488.8 K	0.3624 ± 0.041	–
489.3 K	0.365 ± 0.038	0.315 ± 0.045
490 K	0.3891 ± 0.043	–
490.8 K	0.3978 ± 0.047	–
491.2 K	0.409 ± 0.047	0.468 ± 0.057
491.8 K	0.437 ± 0.046	–
492.7 K	0.449 ± 0.052	–
493.3 K	0.44 ± 0.047	0.447 ± 0.046
493.9 K	0.482 ± 0.051	–
494.8 K	0.4882 ± 0.058	–
495.4 K	0.492 ± 0.051	0.504 ± 0.063
496 K	0.524 ± 0.059	–
496.9 K	0.5169 ± 0.059	–
497.2 K	0.554 ± 0.059	–
497.9 K	0.5547 ± 0.061	–
498.7 K	0.5818 ± 0.064	–
499.3 K	0.61 ± 0.067	0.669 ± 0.073
499.9 K	0.6246 ± 0.072	–
500.8 K	0.6364 ± 0.069	–
501.4 K	0.677 ± 0.074	–
502 K	0.6832 ± 0.079	–
502.9 K	0.7129 ± 0.079	–
503.2 K	0.733 ± 0.083	0.729 ± 0.079
503.4 K	–	0.838 ± 0.09
503.8 K	0.765 ± 0.087	–
504.7 K	0.7889 ± 0.09	–
505.2 K	0.815 ± 0.087	0.861 ± 0.091
505.8 K	0.8468 ± 0.093	–
506.7 K	0.8517 ± 0.093	–
507.2 K	0.888 ± 0.094	0.945 ± 0.1
507.9 K	0.9142 ± 0.11	–
508.7 K	0.933 ± 0.098	–
509.3 K	–	1.037 ± 0.12
511.3 K	–	1.207 ± 0.12
513.4 K	–	1.178 ± 0.13
515.4 K	–	1.41 ± 0.17
517.2 K	–	1.544 ± 0.17
519.2 K	–	1.696 ± 0.18
521.3 K	–	1.757 ± 0.19
523.2 K	–	2.012 ± 0.23
525.3 K	–	2.197 ± 0.23
527.3 K	–	2.32 ± 0.26
529.2 K	–	2.607 ± 0.29
531.2 K	–	2.823 ± 0.3
533.3 K	–	3.064 ± 0.33
535.4 K	–	3.295 ± 0.35
537.2 K	–	3.552 ± 0.4
539.3 K	–	4.01 ± 0.43
541.3 K	–	4.144 ± 0.45
543.3 K	–	4.653 ± 0.52
545.4 K	–	5.059 ± 0.54
547.4 K	–	5.373 ± 0.57
549.2 K	–	5.759 ± 0.62
551.2 K	–	6.208 ± 0.67
553.2 K	–	6.719 ± 0.8
557.3 K	–	7.824 ± 0.79
559.4 K	–	8.304 ± 0.88
561.2 K	–	8.944 ± 0.96

Details	Molar enthalpy of transition or fusion [kcal/mol]	Normal melting temperature [°C]
[1]	–	172.5 ± 0.5
[2]	6.45 ± 0.478	–

CCOc1ccc(NC(C)=O)cc1 [N-(4-ethoxyphenyl)ethanamide]
vapor or sublimation pressure, [1]
Details	Isothermal thermogravimetry	Nonisothermal thermogravimetry
418.2 K	–	0.088 ± 0.009 kPa
420.2 K	–	0.087 ± 0.009 kPa
422.2 K	–	0.102 ± 0.011 kPa
424.3 K	–	0.106 ± 0.015 kPa
426.2 K	–	0.146 ± 0.018 kPa
428.2 K	–	0.146 ± 0.015 kPa
430.3 K	–	0.162 ± 0.017 kPa
432.3 K	–	0.171 ± 0.019 kPa
434.3 K	–	0.199 ± 0.024 kPa
438.2 K	–	0.247 ± 0.027 kPa
440.2 K	–	0.259 ± 0.03 kPa
442.2 K	–	0.309 ± 0.036 kPa
444.2 K	–	0.329 ± 0.04 kPa
446.2 K	–	0.401 ± 0.043 kPa
448.2 K	–	0.396 ± 0.042 kPa
450.2 K	–	0.452 ± 0.05 kPa
452.2 K	–	0.479 ± 0.053 kPa
454.2 K	–	0.538 ± 0.06 kPa
456.3 K	–	0.589 ± 0.064 kPa
458.2 K	–	0.643 ± 0.071 kPa
460.2 K	–	0.707 ± 0.079 kPa
460.3 K	0.821 ± 0.082 kPa	–
461.1 K	0.829 ± 0.1 kPa	–
461.9 K	0.815 ± 0.093 kPa	–
462.2 K	0.899 ± 0.11 kPa	0.785 ± 0.085 kPa
463.3 K	0.958 ± 0.11 kPa	–
464.1 K	0.935 ± 0.1 kPa	–
464.3 K	0.96 ± 0.11 kPa	0.84 ± 0.092 kPa
465.5 K	1.054 ± 0.12 kPa	–
466.2 K	1.028 ± 0.11 kPa and 1.087 ± 0.12 kPa	–
466.3 K	–	0.936 ± 0.11 kPa
467.4 K	1.116 ± 0.12 kPa	–
468.1 K	1.149 ± 0.12 kPa	–
468.2 K	–	1.057 ± 0.12 kPa
468.3 K	1.165 ± 0.12 kPa	–
469.3 K	1.242 ± 0.13 kPa	–
470 K	1.259 ± 0.13 kPa	–
470.2 K	–	1.11 ± 0.12 kPa
470.3 K	1.273 ± 0.14 kPa	–
471 K	1.26 ± 0.13 kPa	–
471.8 K	1.327 ± 0.14 kPa	–
472.2 K	1.381 ± 0.15 kPa	1.192 ± 0.13 kPa
473.3 K	1.377 ± 0.15 kPa	–
474 K	1.484 ± 0.16 kPa	–
474.2 K	–	1.324 ± 0.14 kPa
474.3 K	1.551 ± 0.17 kPa	–
475.4 K	1.567 ± 0.16 kPa	–
476.1 K	1.571 ± 0.16 kPa	–
476.2 K	1.666 ± 0.17 kPa	1.4 ± 0.15 kPa
477.6 K	1.691 ± 0.17 kPa	–
478.3 K	1.709 ± 0.17 kPa and 1.766 ± 0.18 kPa	1.559 ± 0.17 kPa
479.1 K	1.789 ± 0.2 kPa	–
479.8 K	1.808 ± 0.2 kPa	–
480.2 K	1.915 ± 0.21 kPa	1.679 ± 0.18 kPa
481.2 K	2.014 ± 0.23 kPa	–
482 K	2.037 ± 0.22 kPa	–
482.3 K	2.099 ± 0.22 kPa	1.802 ± 0.19 kPa
483.3 K	2.204 ± 0.25 kPa	–
484.1 K	2.228 ± 0.24 kPa	–
484.3 K	2.276 ± 0.25 kPa	1.945 ± 0.21 kPa
485.3 K	2.4 ± 0.28 kPa	–
486 K	2.495 ± 0.28 kPa	–
486.2 K	2.488 ± 0.28 kPa	2.088 ± 0.22 kPa
487.1 K	2.633 ± 0.28 kPa	–
487.8 K	2.702 ± 0.3 kPa	–
488.2 K	–	2.229 ± 0.24 kPa
488.3 K	2.686 ± 0.3 kPa	–
489 K	2.881 ± 0.3 kPa	–
489.8 K	2.981 ± 0.34 kPa	–
490.2 K	2.941 ± 0.3 kPa	–
490.3 K	–	2.41 ± 0.25 kPa
491.1 K	3.159 ± 0.34 kPa	–
492.3 K	–	2.535 ± 0.27 kPa
494.3 K	–	2.717 ± 0.29 kPa
496.2 K	–	2.889 ± 0.3 kPa
498.2 K	–	3.001 ± 0.32 kPa
500.3 K	–	3.29 ± 0.33 kPa
502.3 K	–	3.213 ± 0.32 kPa

Details	Molar enthalpy of transition or fusion [kcal/mol]	Normal melting temperature [°C]
[1]	–	136.5 ± 0.5
[2]	7.17 ± 0.478	–

CC(=O)Nc1ccc(Br)cc1 [N-(4-bromophenyl)acetamide]
vapor or sublimation pressure, [1]
Details	Isothermal thermogravimetry	Nonisothermal thermogravimetry
444.2 K	–	0.304 ± 0.041 kPa
446.2 K	0.384 ± 0.039 kPa and 0.382 ± 0.039 kPa	–
446.3 K	0.353 ± 0.046 kPa	–
446.4 K	–	0.366 ± 0.043 kPa
447.1 K	0.381 ± 0.053 kPa	–
447.7 K	0.394 ± 0.044 kPa	–
448.2 K	0.422 ± 0.045 kPa	–
448.4 K	–	0.398 ± 0.045 kPa
449.4 K	0.415 ± 0.042 kPa	–
449.9 K	0.443 ± 0.045 kPa	–
450.2 K	0.453 ± 0.046 kPa	0.443 ± 0.065 kPa
451.3 K	0.447 ± 0.051 kPa	–
452.1 K	0.489 ± 0.054 kPa	–
452.2 K	0.496 ± 0.055 kPa	–
452.3 K	–	0.579 ± 0.072 kPa
453.4 K	0.528 ± 0.054 kPa	–
453.6 K	0.494 ± 0.052 kPa	–
454.2 K	0.539 ± 0.056 kPa	–
454.4 K	–	0.621 ± 0.063 kPa
455.3 K	0.54 ± 0.058 kPa	–
455.9 K	0.584 ± 0.062 kPa	–
456.3 K	0.606 ± 0.064 kPa	–
456.4 K	–	0.611 ± 0.065 kPa
457.6 K	0.605 ± 0.064 kPa	–
457.8 K	0.634 ± 0.067 kPa	–
458.2 K	0.65 ± 0.068 kPa	–
458.3 K	–	0.712 ± 0.085 kPa
459.3 K	0.67 ± 0.071 kPa	–
459.5 K	0.693 ± 0.073 kPa	–
460.2 K	0.732 ± 0.077 kPa	–
460.3 K	–	0.793 ± 0.09 kPa
461.5 K	0.724 ± 0.075 kPa	–
462 K	0.777 ± 0.08 kPa	–
462.2 K	0.793 ± 0.082 kPa	0.882 ± 0.097 kPa
463.5 K	0.793 ± 0.082 kPa	–
463.6 K	0.84 ± 0.086 kPa	–
464.2 K	0.862 ± 0.092 kPa	–
464.3 K	–	0.953 ± 0.1 kPa
465.2 K	0.855 ± 0.089 kPa	–
465.9 K	0.911 ± 0.094 kPa	–
466.1 K	0.943 ± 0.1 kPa	–
466.2 K	–	0.998 ± 0.11 kPa
467.1 K	0.927 ± 0.1 kPa	–
468.2 K	1.011 ± 0.12 kPa	–
468.3 K	1.006 ± 0.11 kPa	1.147 ± 0.12 kPa
469.2 K	1.005 ± 0.11 kPa	–
470.2 K	1.098 ± 0.12 kPa and 1.075 ± 0.12 kPa	–
470.3 K	–	1.074 ± 0.12 kPa
471.1 K	1.086 ± 0.12 kPa	–
472.1 K	1.208 ± 0.12 kPa	–
472.2 K	–	1.398 ± 0.17 kPa
472.4 K	1.175 ± 0.14 kPa	–
473.2 K	1.17 ± 0.12 kPa	–
474.1 K	1.285 ± 0.13 kPa	–
474.3 K	–	1.482 ± 0.15 kPa
475.3 K	1.239 ± 0.13 kPa	–
476.2 K	1.381 ± 0.14 kPa	1.497 ± 0.17 kPa
478.3 K	–	1.779 ± 0.19 kPa
480.2 K	–	1.749 ± 0.18 kPa
482.3 K	–	1.937 ± 0.22 kPa
484.3 K	–	2.151 ± 0.23 kPa
486.2 K	–	2.296 ± 0.24 kPa
488.3 K	–	2.466 ± 0.27 kPa
490.2 K	–	2.741 ± 0.29 kPa
492.2 K	–	2.83 ± 0.3 kPa
494.3 K	–	3.134 ± 0.34 kPa
496.2 K	–	3.347 ± 0.35 kPa
498.3 K	–	3.604 ± 0.38 kPa
500.3 K	–	3.812 ± 0.41 kPa
502.2 K	–	4.149 ± 0.44 kPa
504.3 K	–	4.419 ± 0.46 kPa
506.2 K	–	4.593 ± 0.48 kPa
508.2 K	–	4.944 ± 0.53 kPa
510.2 K	–	5.307 ± 0.55 kPa
512.2 K	–	5.584 ± 0.57 kPa
514.4 K	–	5.847 ± 0.61 kPa
516.2 K	–	6.243 ± 0.66 kPa

Details	Molar enthalpy of transition or fusion [kcal/mol]
[2]	6.21 ± 0.478
